Source: paper PMC12587545, “Noncytotoxic polymyxin derivatives enhance antibiotic action against multidrug-resistant Gram-negative bacteria” (Antimicrobial Agents and Chemotherapy, 2025)
Values joined by “and” are separate entries in the source; they are usually repeats but may differ in a detail not shown here. Equal values may be shown once. “Also recorded” adds a separate entry of the source.

Columns and labels:
P. aeruginosa = assay: Checkerboard assay (antibiotic potentiation); assay type: cell-based, Pseudomonas aeruginosa
A. baumannii AB027 = assay: Time-kill kinetics assay
Experimental: Bactericidal and bacteriostatic activity correspond to a ≥ 3 log10 and a < 3 log10 decrease in bacterial load after 24 h relative to the starting inoculum, respectively ([39]).
The time- and concentration-dependent killing of the antibiotic/compound combinations was assessed using the time-kill kinetics assay by following a previously described protocol ([27][–][29]). Bacterial culture grown overnight was diluted in phosphate-buffered saline (PBS) to 0.5 McFarland turbidity and was further diluted 1:50 in LB. Bacterial cultures treated with varying concentrations of antibiotic alone, compound alone, or the combination of antibiotic and compound were incubated in a shaking incubator at 250 rpm and at 37°C. At designated time points, 100 µL aliquots were taken from the culture tubes, serially diluted in PBS, and plated on LB agar plates. The bacterial colonies were then counted after incubation of the plates for 18 h at 37°C.

K. pneumoniae = assay: Checkerboard assay (antibiotic potentiation); assay type: cell-based, Klebsiella pneumoniae; conditions: for MICantibiotic + compound: antibiotic MIC with 8 µg/mL (5 µM) compound 1; for MICantibiotic: antibiotic alone; for Potentiation: of antibiotic by 8 µg/mL (5 µM) compound 1
E. coli = assay: Checkerboard assay (antibiotic potentiation); assay type: cell-based, Escherichia coli; conditions: E. coli 94393 (colistin-resistant); antibiotic + compound 1
[1] = P. aeruginosa 262-101856, antibiotic + compound 1
[2] = P. aeruginosa 264-105354, antibiotic + compound 1
[3] = P. aeruginosa PAO1, 0% FBS, zoliflodacin + compound 1
[4] = P. aeruginosa PAO1, [Mg2+] 0.4–0.5 mM, zoliflodacin + compound 1
[5] = P. aeruginosa PAO1, antibiotic + compound 1
[6] = K. pneumoniae 113250 (colistin-resistant)
[7] = K. pneumoniae 116381, antibiotic + compound 1

C[C@@H]1CN2c3c(cc4c(N5C(=O)OC[C@@H]5C)noc4c3F)CC3(C(=O)NC(=O)NC3=O)[C@H]2[C@H](C)O1 [Zoliflodacin]
Interpretation (P. aeruginosa; P. aeruginosa 259-96916, antibiotic + compound 1): Synergy (FIC indices of ≤0.5 is synergistic) | MICantibiotic + compound (P. aeruginosa; P. aeruginosa 259-96916, antibiotic MIC with 8 µg/mL (5 µM) compound 1): 0.125 µg/mL | MICantibiotic (P. aeruginosa; P. aeruginosa 259-96916, antibiotic alone): 128 µg/mL | Potentiation (P. aeruginosa; P. aeruginosa 259-96916, of antibiotic by 8 µg/mL (5 µM) compound 1): ≥1024-fold | FIC index (P. aeruginosa; [1]): x < 0.078 | Interpretation (P. aeruginosa; [1]): Synergy (FIC indices of ≤0.5 is synergistic) | MICantibiotic + compound (P. aeruginosa; P. aeruginosa 262-101856, antibiotic MIC with 8 µg/mL (5 µM) compound 1): 2 µg/mL | MICantibiotic (P. aeruginosa; P. aeruginosa 262-101856, antibiotic alone): >128 µg/mL | Potentiation (P. aeruginosa; P. aeruginosa 262-101856, of antibiotic by 8 µg/mL (5 µM) compound 1): ≥128-fold | FIC index (P. aeruginosa; [2]): x < 0.066 | Interpretation (P. aeruginosa; [2]): Synergy (FIC indices of ≤0.5 is synergistic) | MICantibiotic + compound (P. aeruginosa; P. aeruginosa 264-105354, antibiotic MIC with 8 µg/mL (5 µM) compound 1): 0.5 µg/mL | MICantibiotic (P. aeruginosa; P. aeruginosa 264-105354, antibiotic alone): >128 µg/mL | Potentiation (P. aeruginosa; P. aeruginosa 264-105354, of antibiotic by 8 µg/mL (5 µM) compound 1): ≥512-fold | MICantibiotic + compound (P. aeruginosa; P. aeruginosa 101243 (colistin-resistant), antibiotic MIC with 8 µg/mL (5 µM) compound 1): >128 µg/mL | MICantibiotic (P. aeruginosa; P. aeruginosa 101243 (colistin-resistant), antibiotic alone): >128 µg/mL | MICantibiotic + compound (P. aeruginosa; P. aeruginosa 114228 (colistin-resistant), antibiotic MIC with 8 µg/mL (5 µM) compound 1): >128 µg/mL | MICantibiotic (P. aeruginosa; P. aeruginosa 114228 (colistin-resistant), antibiotic alone): >128 µg/mL | Potentiation (P. aeruginosa; P. aeruginosa PAO1, 0% FBS, of zoliflodacin by 8 µg/mL (5 µM) compound 1): ≥32-fold | FIC index (P. aeruginosa; [3]): x < 0.125 | Interpretation (P. aeruginosa; [3]): Synergy (FIC indices of ≤0.5 is synergistic) | MICantibiotic + compound (P. aeruginosa; P. aeruginosa PAO1, 0% FBS, zoliflodacin MIC with 8 µg/mL (5 µM) compound 1): 8 µg/mL | MICantibiotic (P. aeruginosa; P. aeruginosa PAO1, 0% FBS, zoliflodacin alone): >128 µg/mL | Potentiation (P. aeruginosa; P. aeruginosa PAO1, 10% FBS, of zoliflodacin by 8 µg/mL (5 µM) compound 1): 64 fold | Interpretation (P. aeruginosa; P. aeruginosa PAO1, 10% FBS, zoliflodacin + compound 1): Synergy (FIC indices of ≤0.5 is synergistic) | MICantibiotic + compound (P. aeruginosa; P. aeruginosa PAO1, 10% FBS, zoliflodacin MIC with 8 µg/mL (5 µM) compound 1): 8 µg/mL | MICantibiotic (P. aeruginosa; P. aeruginosa PAO1, 10% FBS, zoliflodacin alone): 512 µg/mL | Potentiation (P. aeruginosa; P. aeruginosa PAO1, 25% FBS, of zoliflodacin by 8 µg/mL (5 µM) compound 1): 1 fold | Interpretation (P. aeruginosa; P. aeruginosa PAO1, 25% FBS, zoliflodacin + compound 1): Additive (0.5 < × ≤ 4 is additive) | MICantibiotic + compound (P. aeruginosa; P. aeruginosa PAO1, 25% FBS, zoliflodacin MIC with 8 µg/mL (5 µM) compound 1): 1024 µg/mL | MICantibiotic (P. aeruginosa; P. aeruginosa PAO1, 25% FBS, zoliflodacin alone): 1024 µg/mL | Potentiation (P. aeruginosa; P. aeruginosa PAO1, 50% FBS, of zoliflodacin by 8 µg/mL (5 µM) compound 1): 1 fold | Interpretation (P. aeruginosa; P. aeruginosa PAO1, 50% FBS, zoliflodacin + compound 1): Additive (0.5 < × ≤ 4 is additive) | MICantibiotic + compound (P. aeruginosa; P. aeruginosa PAO1, 50% FBS, zoliflodacin MIC with 8 µg/mL (5 µM) compound 1): 1024 µg/mL | MICantibiotic (P. aeruginosa; P. aeruginosa PAO1, 50% FBS, zoliflodacin alone): 1024 µg/mL | Potentiation (P. aeruginosa; P. aeruginosa PAO1, [Mg2+] 25 mM, of zoliflodacin by 8 µg/mL (5 µM) compound 1): 1 fold | Interpretation (P. aeruginosa; P. aeruginosa PAO1, [Mg2+] 25 mM, zoliflodacin + compound 1): Additive (0.5 < × ≤ 4 is additive) | MICantibiotic + compound (P. aeruginosa; P. aeruginosa PAO1, [Mg2+] 25 mM, zoliflodacin MIC with 8 µg/mL (5 µM) compound 1): 1024 µg/mL | MICantibiotic (P. aeruginosa; P. aeruginosa PAO1, [Mg2+] 25 mM, zoliflodacin alone): 1024 µg/mL | Potentiation (P. aeruginosa; P. aeruginosa PAO1, [Mg2+] 0.4–0.5 mM, of zoliflodacin by 8 µg/mL (5 µM) compound 1): ≥32-fold | FIC index (P. aeruginosa; [4]): x < 0.125 | Interpretation (P. aeruginosa; [4]): Synergy (FIC indices of ≤0.5 is synergistic) | MICantibiotic + compound (P. aeruginosa; P. aeruginosa PAO1, [Mg2+] 0.4–0.5 mM, zoliflodacin MIC with 8 µg/mL (5 µM) compound 1): 8 µg/mL | MICantibiotic (P. aeruginosa; P. aeruginosa PAO1, [Mg2+] 0.4–0.5 mM, zoliflodacin alone): >128 µg/mL | FIC index (P. aeruginosa; [5]): x < 0.125 | Interpretation (P. aeruginosa; [5]): Synergy (FIC indices of ≤0.5 is synergistic) | Interpretation (P. aeruginosa; P. aeruginosa PAO1, antibiotic + compound 3): Additive (0.5 < × ≤ 4 is additive) | MICantibiotic + compound (P. aeruginosa; P. aeruginosa PAO1, antibiotic MIC with 8 µg/mL (5 µM) compound 1): 8 µg/mL | MICantibiotic + compound (P. aeruginosa; P. aeruginosa PAO1, antibiotic MIC with 8 µg/mL (5 µM) compound 3): 128 µg/mL | MICantibiotic (P. aeruginosa; P. aeruginosa PAO1, antibiotic alone): 128 µg/mL and >128 µg/mL | Potentiation (P. aeruginosa; P. aeruginosa PAO1, of antibiotic by 8 µg/mL (5 µM) compound 1): ≥32-fold | Potentiation (P. aeruginosa; P. aeruginosa PAO1, of antibiotic by 8 µg/mL (5 µM) compound 3): 1 fold | time-kill outcome (A. baumannii AB027; 0.5 µg/mL zoliflodacin + 8 µg/mL (5 µM) compound 1): appeared to eradicate the bacteria at 8 h; also recorded: slight regrowth after 24 h | time-kill outcome (A. baumannii AB027; 8 µg/mL zoliflodacin + 8 µg/mL (5 µM) compound 1): appeared to eradicate the bacteria at 8 h | time-kill outcome (A. baumannii AB027; monotherapy at 0.5 µg/mL): growth curves similar to that of untreated bacteria | time-kill outcome (A. baumannii AB027; monotherapy at 8 µg/mL, LB, 37°C, up to 24 h): initially decreased bacterial loads, regrowth occurred after 8 h | decrease in bacterial load from the starting inoculum and from the most active monotherapy (A. baumannii AB027; zoliflodacin + compound 1, both 8 µg/mL, after 24 h): ≥ 2 log10 | Interpretation (K. pneumoniae; K. pneumoniae 113250 (colistin-resistant), antibiotic + compound 1): Synergy (FIC indices of ≤0.5 is synergistic) | MICantibiotic + compound (K. pneumoniae; [6]): 4 µg/mL | MICantibiotic (K. pneumoniae; [6]): 128 µg/mL | Potentiation (K. pneumoniae; [6]): 32 fold | FIC index (K. pneumoniae; [7]): 0.063 | Interpretation (K. pneumoniae; [7]): Synergy (FIC indices of ≤0.5 is synergistic) | MICantibiotic + compound (K. pneumoniae; K. pneumoniae 116381): 0.25 µg/mL | MICantibiotic (K. pneumoniae; K. pneumoniae 116381): 256 µg/mL | Potentiation (K. pneumoniae; K. pneumoniae 116381): ≥512-fold | Interpretation (E. coli): Synergy (FIC indices of ≤0.5 is synergistic)
